Data on 23 molecules can be found in patent publication US20050043346A1, “Pyridylpyrrole derivatives active as kinase inhibitors” (Pharmacia Italia S.p.A., priority 2003, published 2005).

The target of one experiment is Cdc7/Dbf4 (Homo sapiens, UniProt O00311). Description: Inhibition assay of Cdc7/Dbf4 activity (Dowex resin capture, MCM2 substrate). The format is biochemical. Particulars: Cdc7/Dbf4, MCM2 substrate 6 μM, ATP 2 μM. Here is the method: The inhibiting activity of putative Cdc7 inhibitors and the potency of selected compounds is determined through a method of assay based on the use of Dowex resin capture technology. The assay consists of the transfer of radioactivity labeled phosphate moiety by the kinase to an acceptor substrate. The resulting 33P-labeled product is separated from unreacted tracer, transferred into a scintillation cocktail and light emitted is measured in a scintillation counter.
The inhibition assay of Cdc7/Dbf4 activity is performed according to the following protocol. The MCM2 substrate is trans-phosphorylated by the Cdc7/Dbf4 complex in the presence of ATP traced with γ^33-ATP. The reaction is stopped by addition of Dowex resin in the presence of formic acid. Dowex resin particles capture unreacted γ^33-ATP and drag it to the bottom of the well while ^33P phosphorylated MCM2 substrate remains in solution. The supernatant is collected, transferred into Optiplate plates and the extent of substrate phosphorylation is evaluated by β counting.
The inhibition assay of Cdc7/Dbf4 activity was performed in 96 wells plate according to the following protocol.
The solvent for test compounds contained 3% DMSO. (final concentration 1%) • 10 μl substrate MCM2 (6 μM final concentration), a mixture of cold ATP (2 μM final concentration) and radioactive ATP (1/5000 molar ratio with cold ATP). • 10 μl enzyme (Cdc7/Dbf4, 2 nM final concentration) that started the reaction. The buffer of the reaction consisted in 50 mM HEPES pH 7.9 containing 15 mM MgCl2, 2 mM DTT, 3 μM NaVO3, 2 mM glycerophosphate and 0.2 mg/ml BSA.
After incubation for 60 minutes at room temperature, the reaction was stopped by adding to each well 150 μl of Dowex resin in the presence of 150 mM formic acid. After another 60 min incubation, 50 μL of suspension were withdrawn and transferred into 96-well OPTIPLATEs containing 150 μl of MicroScint 40 (Packard); after 5-10 minutes shaking the plates were read for 1 min in a Packard TOP-Count radioactivity reader.
Experimental data were analyzed by the computer program Assay Explorer using the four parameter logistic equation: y=bottom+(top−bottom)/(1+10^((log IC50−x)*slope)) where x is the logarithm of the inhibitor concentration, y is the response; y starts at bottom and goes to top with a sigmoid shape.

The target in another experiment is cdk2/Cyclin A (Homo sapiens, UniProt P24941). Description: Inhibition assay of cdk2/Cyclin A activity (SPA). The class given is biochemical. Particulars: Cyclin A/CDK2 complex, histone H1 substrate, 10 μM ATP. The protocol: The inhibiting activity of putative cdk/cyclin inhibitors and the potency of selected compounds may be determined through a method of assay based on the use of the SPA technology (Amersham Pharmacia Biotech).
The assay consists of the transfer of radioactivity labelled phosphate moiety by the kinase to a biotinylated substrate. The resulting 33P-labelled biotinylated product is allowed to bind to streptavidin-coated SPA beads (biotin capacity 130 pmol/mg), and light emitted was measured in a scintillation counter.
Kinase reaction: 4 μM in house biotinylated histone H1 (Sigma #H-5505) substrate, 10 μM ATP (0.1 microCi P^33γ-ATP), 1.1 nM Cyclin A/CDK2 complex, inhibitor in a final volume of 30 μl buffer (TRIS HCl 10 mM pH 7.5, MgCl2 10 mM, DTT 7.5 mM+0.2 mg/ml BSA) were added to each well of a 96 U bottom. After incubation for 60 min at room temperature, the reaction was stopped by addition of 100 μl PBS buffer containing 32 mM EDTA, 500 μM cold ATP, 0.1% Triton X100 and 10 mg/ml streptavidin coated SPA beads. After 20 min incubation, 110 μL of suspension were withdrawn and transferred into 96-well OPTIPLATEs containing 100 μl of 5M CsCl. After 4 hours, the plates were read for 2 min in a Packard TOP-Count radioactivity reader.
IC50 determination: inhibitors were tested at different concentrations ranging from 0.0015 to 10 μM. […]

Values joined by “and” are separate entries in the source; they are usually repeats but may differ in a detail not shown here. Identical values can stand only once. Counter-ions that a name gives are not always drawn.

Cdc7/Dbf4, sequence (O00311 whole entry): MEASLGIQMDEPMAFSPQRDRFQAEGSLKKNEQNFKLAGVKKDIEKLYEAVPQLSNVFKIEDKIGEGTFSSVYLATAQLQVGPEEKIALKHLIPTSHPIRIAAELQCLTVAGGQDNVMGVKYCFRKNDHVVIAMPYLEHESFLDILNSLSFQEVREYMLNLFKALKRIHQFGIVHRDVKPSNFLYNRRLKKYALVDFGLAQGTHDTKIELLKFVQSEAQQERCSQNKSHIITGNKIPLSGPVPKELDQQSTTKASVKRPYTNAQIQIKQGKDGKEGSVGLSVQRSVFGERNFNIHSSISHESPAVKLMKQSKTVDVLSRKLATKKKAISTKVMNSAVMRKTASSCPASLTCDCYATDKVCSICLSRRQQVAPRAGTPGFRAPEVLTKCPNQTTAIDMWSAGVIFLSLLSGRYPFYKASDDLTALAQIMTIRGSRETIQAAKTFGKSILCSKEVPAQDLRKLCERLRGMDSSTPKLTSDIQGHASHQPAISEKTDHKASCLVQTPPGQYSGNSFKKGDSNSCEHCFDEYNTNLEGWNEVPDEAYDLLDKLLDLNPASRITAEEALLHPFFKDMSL
Cdc7/Dbf4, sequence (Q9UBU7 whole entry partner): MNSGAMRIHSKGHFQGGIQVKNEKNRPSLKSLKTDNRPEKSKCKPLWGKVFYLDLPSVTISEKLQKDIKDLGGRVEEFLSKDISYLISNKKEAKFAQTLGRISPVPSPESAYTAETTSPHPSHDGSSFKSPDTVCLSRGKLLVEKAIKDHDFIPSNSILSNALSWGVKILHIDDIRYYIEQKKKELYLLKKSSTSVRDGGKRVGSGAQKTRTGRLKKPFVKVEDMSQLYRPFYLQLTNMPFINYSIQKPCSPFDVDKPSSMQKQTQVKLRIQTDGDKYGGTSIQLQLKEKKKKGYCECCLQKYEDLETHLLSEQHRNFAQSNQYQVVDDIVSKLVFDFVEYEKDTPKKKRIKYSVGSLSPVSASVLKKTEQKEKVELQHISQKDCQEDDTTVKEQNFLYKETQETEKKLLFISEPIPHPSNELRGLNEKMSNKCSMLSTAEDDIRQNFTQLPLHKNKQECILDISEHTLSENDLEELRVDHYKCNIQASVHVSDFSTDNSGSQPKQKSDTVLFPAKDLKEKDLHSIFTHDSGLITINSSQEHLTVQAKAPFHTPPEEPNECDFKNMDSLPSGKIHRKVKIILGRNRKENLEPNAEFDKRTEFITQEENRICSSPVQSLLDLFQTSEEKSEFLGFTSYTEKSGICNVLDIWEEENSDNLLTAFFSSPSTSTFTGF

Broadly, the IC50 is the concentration that gives 50% inhibition. A high value points to weaker potency in that assay. Consider `O=C1NC(Cc2ccccc2)Cc2[nH]c(-c3ccncc3)cc21` (single isomer, unassigned) [(6R or 6S)-6-benzyl-2-pyridin-4-yl-1,5,6,7-tetrahydro-4H-pyrrolo[3,2-c]pyridin-4-one], for which, on Cdc7/Dbf4, the IC50 is 20 nM and 9 nM. Same read-out and setting: the same measure for `CC1CNC(=O)c2cc(-c3ccncc3)[nH]c21` (single isomer, unassigned) [(7R or 7S)-7-methyl-2-pyridin-4-yl-1,5,6,7-tetrahydro-4H-pyrrolo[3,2-c]pyridin-4-one]: 4 nM and 7 nM; for `O=C1NCCc2[nH]c(-c3ccnc4[nH]ccc34)cc21` [2-(1H-pyrrolo[2,3-b]pyridin-4-yl)-1,5,6,7-tetrahydro-4H-pyrrolo[3,2-c]pyridin-4-one hydrochloride]: 16 nM. Still for that read-out and setting: to `O=C1NCCc2[nH]c(-c3ccncc3F)cc21` [2-(3-fluoropyridin-4-yl)-1,5,6,7-tetrahydro-4H-pyrrolo[3,2-c]pyridin-4-one hydrochloride] belongs 8 nM. Molecule `O=C1NCCc2[nH]c(-c3ccnc(NC4CCCC4)c3)cc21` [2-[2-(cyclopentylamino)pyridin-4-yl]-1,5,6,7-tetrahydro-4H-pyrrolo[3,2-c]pyridin-4-one] gave an IC50 on cdk2/Cyclin A of 40 nM. In turn, `O=C1NCC2(CC2)c2[nH]c(-c3ccncc3)cc21` [2′-pyridin-4-yl-5′,6′-dihydrospiro[cyclopropane-1,7′-pyrrolo[3,2-c]pyridin]-4′(1′H)-one] registered an IC50 against Cdc7/Dbf4 of 2 nM. This lies in the single-digit nanomolar range. In turn, `Cc1c(-c2ccncc2)[nH]c2c1C(=O)NCC2` [3-methyl-2-pyridin-4-yl-1,5,6,7-tetrahydro-4H-pyrrolo[3,2-c]pyridin-4-one hydrochloride] gave an IC50 on Cdc7/Dbf4 of 3 nM. On the same count and under the same terms, the same measure for `CCC1(CC)CNC(=O)c2cc(-c3ccncc3)[nH]c21` [7,7-diethyl-2-pyridin-4-yl-1,5,6,7-tetrahydro-4H-pyrrolo[3,2-c]pyridin-4-one hydrochloride]: 7 nM; for `CC1(C)CNC(=O)c2cc(-c3ccncc3)[nH]c21` [7,7-dimethyl-2-pyridin-4-yl-1,5,6,7-tetrahydro-4H-pyrrolo[3,2-c]pyridin-4-one hydrochloride]: 3 nM; for `O=C1NC(CCc2ccccc2)Cc2[nH]c(-c3ccncc3)cc21` [(6R,6S)-6-(2-phenylethyl)-2-pyridin-4-yl-1,5,6,7-tetrahydro-4H-pyrrolo[3,2-c]pyridin-4-one hydrochloride]: 26 nM.

`O=C1NC(Cc2ccccc2)Cc2[nH]c(-c3ccncc3)cc21` [(6R,6S)-6-benzyl-2-pyridin-4-yl-1,5,6,7-tetrahydro-4H-pyrrolo[3,2-c]pyridin-4-one]: the 50% inhibitory concentration (IC50) against Cdc7/Dbf4 stood at 16 nM. Take `O=C1NC(C2CCCCC2)Cc2[nH]c(-c3ccncc3)cc21` [(6R,6S)-6-cyclohexyl-2-pyridin-4-yl-1,5,6,7-tetrahydro-4H-pyrrolo[3,2-c]pyridin-4-one]: the IC50 against Cdc7/Dbf4 stood at 8 nM. On the same count and under the same terms, the same measure for `O=C1NC(C2CC2)Cc2[nH]c(-c3ccncc3)cc21` [(6R,6S)-6-cyclopropyl-2-pyridin-4-yl-1,5,6,7-tetrahydro-4H-pyrrolo[3,2-c]pyridin-4-one]: 2 nM; for `CC(C)C1Cc2[nH]c(-c3ccncc3)cc2C(=O)N1` [(6R,6S)-6-isopropyl-2-pyridin-4-yl-1,5,6,7-tetrahydro-4H-pyrrolo[3,2-c]pyridin-4-one hydrochloride]: 9 nM; for `C[C@H]1Cc2[nH]c(-c3ccncc3)cc2C(=O)N1` [(6S)-6-methyl-2-pyridin-4-yl-1,5,6,7-tetrahydro-4H-pyrrolo[3,2-c]pyridin-4-one]: 14 nM.

`CCC1CNC(=O)c2cc(-c3ccncc3F)[nH]c21` [(7R,7S)-2-(3-fluoropyridin-4-yl)-7-ethyl-1,5,6,7-tetrahydro-4H-pyrrolo[3,2-c]pyridin-4-one]: at Cdc7/Dbf4, the IC50 is 1 nM.

`CC(C)CC1CNC(=O)c2cc(-c3ccncc3F)[nH]c21` [(7R,7S)-2-(3-fluoropyridin-4-yl)-7-isobutyl-1,5,6,7-tetrahydro-4H-pyrrolo[3,2-c]pyridin-4-one] came in with an IC50 against Cdc7/Dbf4 of 4 nM. `CC(C)C1CNC(=O)c2cc(-c3ccncc3F)[nH]c21` [(7R,7S)-2-(3-fluoropyridin-4-yl)-7-isopropyl-1,5,6,7-tetrahydro-4H-pyrrolo[3,2-c]pyridin-4-one] yielded an IC50 against Cdc7/Dbf4 of 3 nM. This IC50 and that of the molecule before are within 1.5-fold of each other. As to `O=C1NCC(Cc2ccccc2)c2[nH]c(-c3ccncc3)cc21` [(7R,7S)-7-benzyl-2-pyridin-4-yl-1,5,6,7-tetrahydro-4H-pyrrolo[3,2-c]pyridin-4-one], on Cdc7/Dbf4, the IC50 amounted to 17 nM. The same measure, in the same setting: the same measure for `CC(C)CC1CNC(=O)c2cc(-c3ccncc3)[nH]c21` [(7R,7S)-7-isobutyl-2-pyridin-4-yl-1,5,6,7-tetrahydro-4H-pyrrolo[3,2-c]pyridin-4-one hydrochloride]: 5 nM; for `CC(C)C1CNC(=O)c2cc(-c3ccncc3)[nH]c21` [(7R,7S)-7-isopropyl-2-pyridin-4-yl-1,5,6,7-tetrahydro-4H-pyrrolo[3,2-c]pyridin-4-one]: 20 nM. `CC1CNC(=O)c2cc(-c3ccncc3)[nH]c21` [(7R,7S)-7-methyl-2-pyridin-4-yl-1,5,6,7-tetrahydro-4H-pyrrolo[3,2-c]pyridin-4-one hydrochloride] gave an IC50 against Cdc7/Dbf4 of 5 nM. This IC50 lies about 4-fold lower than the previous one. With `CCC(C)C1CNC(=O)c2cc(-c3ccncc3)[nH]c21` [(7R,7S)-7-sec-butyl-2-pyridin-4-yl-1,5,6,7-tetrahydro-4H-pyrrolo[3,2-c]pyridin-4-one], the midpoint of inhibition at Cdc7/Dbf4, the IC50, lay at 3 nM.
